≈ marks a conversion by molar mass, not a printed value. Where two headings read alike, the source gives them in different places.

Data set [1] in a line: cytotoxicity (cell viability) in 16HBE cells. The class given is cell-based. Conditions: human, read-out: CC50 (50% cell viability). As for the experimental part:
(§1) A dilution series of each test compound (8-point, 10-fold dose titration) was added prophylactically for one hour, to cells. Cells were infected with virus for one hour, at a single concentration (100×TCID50 (Median Tissue Culture Infectious Dose). Additional media was added to the wells, with equivalent concentrations of compound added in for the duration of the study. Vehicle and positive control wells were set up to control for any influence of the compounds alone on cell viability. Cells were visually inspected for the appearance of any cytopathic effects (CPE). A cell viability assay was performed once CPE was complete.
(§2) • EC50: The concentration which results in 50% viral inhibition, following the addition of compounds. • CC50: The concentration which results in 50% cell viability, following the addition of compounds.
(§3) • 1. Cells permissible to infection, indicated in the Conditions Table, were grown and seeded into 96-well plates to a confluency of 80-90%. • 2. The test compounds were serially diluted 10-fold into 8 concentrations in total. The serial dilution was added to the cells for 1 hour prior to infection with each virus. Positive control compounds were included using the same treatment regimen. • 3. After pre-treatment, each virus was added to the cells for 1 h at 100×TCID50. A mock infection of blank media was added to the uninfected controls. • 4. After infection, the virus/media was removed and an overlay medium was added, with equivalent concentrations of the test compounds added in. • 5. […] A cell viability assay was performed on all conditions, with cells receiving the test treatment compared to the vehicle treated and uninfected controls.

The next data set relates to 16HBE cells. Description: cytotoxicity (cell viability) in 16HBE cells. The class given is cell-based. As to conditions: 5 days. As for the experimental part: as §1, §2, §3
Another data set relates to Human Coronavirus OC43. Description: inhibition of HCoV OC43 infection in H292 cells (CPE/cell viability assay). The class given is cell-based, Human Coronavirus OC43 (Beta). Conditions: for efficacy against HCoV OC43: H292 cells. As for the experimental part:
as §1
(§4) Inhibition was calculated as follows: […]
(§5) where: • A: mean optical density of test, • B: mean optical density of virus controls, • C: mean optical density of cell controls. • Negative values occur when A<B, due either to natural variation or compound toxicity.
as §2, §3

Data set [2] in a line: cytotoxicity (cell viability) in H292 cells. The class given is cell-based. Conditions: human, read-out: CC50 (50% cell viability). Here is the method:
as §1, §2, §3

In a further data set the test system is H292 cells. Description: cytotoxicity (cell viability) in H292 cells. Conditions: 5 days. The class given is cell-based. Here is the method:
as §1, §2, §3

The next data set relates to uninfected H9 cells. Conditions: cited from earlier work.
The next data set has as its system HIV. As to conditions: cited from earlier work.
The conditions of data set [3]: 5 mg/kg i.p., rodents; cited from earlier work.
A further data set concerns Human Coronavirus 229E. Description: inhibition of HCoV 229E infection in 16HBE cells (CPE/cell viability assay). The class given is cell-based, Human Coronavirus 229E (Alpha). Here is the method:
as §1, §4, §5, §2
• 1. Cells permissible to infection, indicated in the Conditions Table, were grown and seeded into 96-well plates to a confluency of 80-90%. • 2. The test compounds were serially diluted 10-fold into 8 concentrations in total. […]

As to `CC(C)=CCC/C(C)=C/CCC1(C)C=Cc2c(cc(C)c(C(=O)O)c2O)O1` (racemic) [1:1 mixture of (+)-DCA with (−)-DCA, (E)-2-(4,8-dimethylnona-3,7-dien-1-yl)-5-hydroxy-2,7-dimethyl-2H-chromene-6-carboxylic acid], the CC50 (in general, the concentration that lowers cell viability or growth by half) at 5 days was 8.2 mg/L in data set [1] and 5.9 mg/L in data set [2]. Moreover, the “CC50 (50% cell viability)” value in the data set on 16HBE cells was found to be 8.225 mg/L; in the data set on H292 cells, 5.938 mg/L. Further, the “efficacy against HCoV OC43” value in the data set on Human Coronavirus OC43 (listed as 1:1 mix of both) is reported as “Efficacy was seen”.
Consider `CC(C)=CCC/C(C)=C/CCC1(C)C=Cc2c(cc(C)c(C(=O)O)c2O)O1` (stereo in doubt) [(−)-DCA, (−)-(2S)-2-[(3E)-4,8-dimethylnona-3,7-dienyl]-5-hydroxy-2,7-dimethylchromene-6-carboxylic acid], for which the CC50 at 5 days in data set [1] came out at 35.7 mg/L (≈ 96.4 µM); in data set [2], 15.1 mg/L (≈ 40.8 µM). Besides, the EC50 (in general, the midpoint of the concentration-response curve) with Human Coronavirus OC43 (Betacoronavirus 1, OC43, NCI-H292, 120 h, read-out: EC50 (50% viral inhibition), HCoV OC43, H292 cells, 5 days) turned out to be 4.39 mg/L. The “efficacy against HCoV OC43” value with Human Coronavirus OC43 was “Efficacy was seen”. The “EC50 (50% viral inhibition)” value with Human Coronavirus OC43 (HCoV OC43, H292 cells, 5 days) worked out at 4.382 mg/L (≈ 11.8 µM).
Take `CC(C)=CCC/C(C)=C/CC[C@@]1(C)C=Cc2c(cc(C)c(C(=O)O)c2O)O1` [(+)-DCA, (S,E)-2-(4,8-dimethylnona-3,7-dien-1-yl)-5-hydroxy-2,7-dimethyl-2H-chromene-6-carboxylic acid]: the figures for the CC50 at 5 days in data set [1] and in [2] were 20.7 mg/L (≈ 55.9 µM) and 9.27 mg/L (≈ 25 µM), respectively. Also, the “efficacy against HCoV OC43” value in the data set on Human Coronavirus OC43 is on record as “Efficacy was seen”. Also, the “inhibition of uninfected H9 growth EC50” value in the data set on uninfected H9 cells was 21.1 mg/L. Further, the “anti-HIV activity EC50” value with HIV (acutely infected H9 cells) is 0.00567 mg/L.
With `CCCCCc1cc2c(c(O)c1C(=O)O)C=CC(C)(CCC=C(C)C)O2` (centres unmarked) [CBCA, 5-hydroxy-2-methyl-2-(4-methylpent-3-enyl)-7-pentylchromene-6-carboxylic acid], in [3], the “plasma Cmax” value is on record as “approx. 4 μg/mL” and the side effects result is on record as “without any major side effects”.
For `CCC(CC)COC(=O)[C@H](C)N[P@](=O)(OC[C@H]1O[C@@](C#N)(c2ccc3c(N)ncnn23)[C@H](O)[C@@H]1O)Oc1ccccc1` [Remdesivir, reference compound], the EC50 with Human Coronavirus OC43 (Betacoronavirus 1, OC43, NCI-H292, 120 h, HCoV OC43, H292 cells, 5 days, read-out: EC50 (50% viral inhibition)) was 0.029 mg/L; in the data set with Human Coronavirus OC43 (Betacoronavirus 1, OC43, NCI-H292, HCoV OC43, read-out: EC50), 0.01 to 0.1 µM; with Human Coronavirus 229E (16HBE, read-out: EC50), 0.01 to 0.1 µM; in the data set on Human Coronavirus 229E (120 h, 16HBE cells, 5 days, read-out: EC50 (50% viral inhibition)), 0.023 mg/L.
In the case of `CC(C)=CCC[C@@]1(C)[C@@H]2CC[C@]3(C)Oc4cc(C)c(C(=O)O)c(O)c4[C@H]1[C@H]23` [Rhododaurichromanic acid A], the “anti-HIV activity EC50” value with HIV (in vitro) was 0.37 mg/L.
Consider `CC(C)=CCC[C@]1(C)[C@@H]2CC[C@]3(C)Oc4cc(C)c(C(=O)O)c(O)c4[C@H]1[C@H]23` [Rhododaurichromanic acid B], for which the anti-HIV activity entry in the data set with HIV (in vitro) is given as “no anti-HIV activity”.

These data come from patent publication US20240261253A1, “DAUR[…] AND IT'S USE IN MEDICINE” (Phytotherapeutix Ltd., priority 2021, published 2024).
